Test results taken from paper PMC9032776, “Towards Selective Binding to the GLUT5 Transporter: Synthesis, Molecular Dynamics and In Vitro Evaluation of Novel C-3-Modified 2,5-Anhydro-D-mannitol Analogs” (Pharmaceutics, 2022).
Like-named read-outs stand apart in the source and are kept apart here.

Assays:
GLUT5 [1] = target: T1, GLUT5 (Mus musculus, UniProt Q9WV38); test: In vitro inhibition of 6-[18F]FDF cell uptake (competition) in EMT6 cells; type: cell-based, murine; settings: for IC50: 60 min incubation, glucose-free Krebs-Ringer buffer, mean ± SEM from n data points out of 2-4 experiments, read-out: IC50 (mM) against 6-[18F]FDF uptake into EMT6 cells; for Inhibition of 6-[18F]FDF uptake into EMT6 cells (in words): selected concentration range 10^-8-10^-3 and 3 x 10^-2 M; for Fold better inhibition of 6-[18F]FDF uptake relative to 6-FDF: compared with reference 6-FDF
T1 construct: GLUT5-expressing murine mammary carcinoma cancer cells (EMT6); endogenous in cells; host or cells: EMT6 murine mammary carcinoma cells
T1 sequence (Q9WV38 1-501): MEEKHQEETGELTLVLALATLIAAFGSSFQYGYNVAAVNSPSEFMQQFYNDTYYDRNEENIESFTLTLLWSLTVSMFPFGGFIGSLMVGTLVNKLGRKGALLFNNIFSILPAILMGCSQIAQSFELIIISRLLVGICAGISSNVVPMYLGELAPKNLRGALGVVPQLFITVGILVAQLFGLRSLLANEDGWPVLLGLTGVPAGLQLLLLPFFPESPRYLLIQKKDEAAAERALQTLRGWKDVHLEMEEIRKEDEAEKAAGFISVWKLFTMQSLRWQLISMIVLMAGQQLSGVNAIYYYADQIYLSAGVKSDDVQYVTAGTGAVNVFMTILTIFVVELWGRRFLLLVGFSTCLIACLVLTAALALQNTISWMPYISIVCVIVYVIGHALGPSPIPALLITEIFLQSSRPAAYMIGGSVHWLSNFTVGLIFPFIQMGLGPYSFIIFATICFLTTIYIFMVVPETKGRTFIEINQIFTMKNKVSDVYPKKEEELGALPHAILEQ
Method: EMT6 cells were grown to confluence in 12-well cell culture plates with media renewal every 2 days. One hour prior to the experiment, cell culture media was removed and the plates were washed twice with glucose-free Krebs–Ringer buffer solution. To each well, 1 mL of glucose-free Krebs–Ringer buffer solution was added and incubation at 37 °C was continued for 1 h under the glucose-free condition. After one hour, Krebs–Ringer buffer was removed.
After 60 min incubation time, radiotracer uptake was stopped with 1 mL of ice-cold PBS, and the cells were washed twice with PBS and lysed in 0.4 mL radioimmunoprecipitation assay buffer (RIPA buffer). Radioactivity in the cell lysates was then determined as counts per minute (CPM) using a WIZARD2 automatic γ-counter (Perkin Elmer, Waltham, MA, USA) and converted to the radioactivity dose SI unit Becquerel (Bq). Data was analyzed as percentage of maximum uptake of 6-[^18F]FDF. Graphs were constructed using GraphPad Prism 5.0 (GraphPad Software, San Diego, CA, USA) and half-maximum inhibition concentrations (IC50) were determined by graphical analysis of the concentration-inhibition curves.
To analyze the interaction of these novel C-3-modified 2,5-anhydro-D-mannitol analogs with GLUT5, in vitro experiments were carried out in GLUT5-expressing murine mammary carcinoma cancer cells (EMT6) to determine how the varied substitution patterns would impact GLUT5 binding. Furthermore, fructose derivative 6-FDF was used as the reference compound as it was analyzed for its uptake profile through GLUT5 in the past. […] Therefore, when designing novel specific inhibitors for the GLUT5 transporter, it would be reasonable to expect their GLUT5 transport also in a millimolar concentration range, especially when using a radiometric assay that was established with radiolabeled fructose derivative 6-[^18F]FDF in murine EMT6 breast cancer cells and with inhibition by D-fructose and reference compound 6-FDF as internal controls.

GLUT5 [2] = settings: human MCF7 breast cancer cells; cited from earlier work
GLUT5 [3] = target: T1, GLUT5; settings: cited from earlier work
GLUT5 [4] = test system: GLUT5; parameters: method as in PMID 26306809; settings: read-out: IC50 against D-[14C]fructose; cited from earlier work
GLUT5 [5] = test system: GLUT5; parameters: method as in PMID 27074918; settings: MCF7 human breast cancer cells; read-out: IC50 against D-[14C]fructose; cited from earlier work
GLUT5 [6] = test system: GLUT5; parameters: method as in PMID 27074918; settings: proteoliposome GLUT5 expression system; read-out: IC50 against D-[14C]fructose; cited from earlier work
[7] = Solubility in Krebs-Ringer buffer; type: physicochemical
GLUT2 = test system: GLUT2; parameters: method as in PMID 29142019; settings: murine EMT6 cells; read-out: IC50 against uptake of [18F]FDG; cited from earlier work
GLUT5 [8] = settings: read-out: Affinity (Km) of fructose transport through GLUT5; D-[14C]fructose; GLUT5 (human isoform)-expressing oocytes or brush-border membrane vesicles from rat and human intestine; cited from earlier work
GLUT1 = test system: GLUT1; parameters: method as in PMID 18398011, PMID 9299540, PMID 15457374, doi:10.1002/bmb.2003.494031030227; settings: cited from earlier work

`O=C(O)c1cc(NC(=S)N[C@H]2[C@H](O)[C@@H](CO)O[C@@H]2CO)ccc1-c1c2ccc(=O)cc-2oc2cc(O)ccc12` [Compound 8] gave an IC50 (GLUT5 [1]) of ~20 mM.

In the case of `O=S(=O)(N[C@H]1[C@H](O)[C@@H](CO)O[C@@H]1CO)c1ccc(F)cc1C(F)(F)F` [Compound 5, 3-deoxy-3-[N-(4-fluoro-2-(trifluoromethyl)benzenesulfonamide)amino]-2,5-anhydro-D-mannitol], the “Inhibition of 6-[18F]FDF uptake into EMT6 cells (in words)” value (“Inhibition … (in words)” for short) (GLUT5 [1]) is reported as “failed to inhibit 6-[^18F] FDF uptake transport at all”.

For `O=C(CO/N=C/c1ccc(F)cc1)N[C@H]1[C@H](O)[C@@H](CO)O[C@@H]1CO` [Compound 10, 3-deoxy-3-[N-(2-(((4-fluorobenzylidene)amino)oxy)acetamide)amino]-2,5-anhydro-D-mannitol], the “Fold better inhibition of 6-[18F]FDF uptake relative to 6-FDF” value (GLUT5 [1]) was ~ 10 fold.

In the case of `O=[N+]([O-])c1ccc(NC[C@H]2O[C@H](CO)[C@@H](O)[C@@H]2O)c2nonc12` [NBDM, 1-[N-(7-nitrobenz-2-oxa-1,3-diazole-4-yl)amino]-2,5-anhydro-D-mannitol], the Ki (GLUT5 [2]) is given as 2.3 to 2.7 mM and the “Transport efficiency through GLUT5 relative to D-fructose” value (GLUT5 [2]) is given as “transported twice as efficiently as D-fructose”.

For `O=C(CO)[C@@H](O)[C@H](O)[C@H](O)CF` [6-FDF, 6-deoxy-6-fluoro-D-fructose], the IC50 (GLUT5 [1]) is listed as 17 ± 0.75 mM and the IC50 (GLUT5 [3]; murine EMT6 breast cancer cells, read-out: IC50 (half-maximum inhibition concentration) against 6-[18F]FDF uptake) is listed as 19 mM.

Work on `O=S(=O)(N[C@H]1[C@H](O)[C@@H](CO)O[C@@H]1CO)c1ccc(F)cc1` [Compound 4, 3-deoxy-3-[N-(4-fluorobenzenesulfonamide)amino]-2,5-anhydro-D-mannitol] yielded an IC50 (GLUT5 [1]) of ~6 mM.

In the case of `C=C1C[C@@]23CC[C@H]4[C@@](C)(CCC[C@@]4(C)C(=O)O[C@@H]4O[C@H](CO)[C@@H](O)[C@H](O)[C@H]4O)[C@@H]2CC[C@]1(O[C@@H]1O[C@H](CO)[C@@H](O)[C@H](O)[C@H]1O)C3` [rubusoside], the IC50 (GLUT5 [4]) is listed as 10.3 mM.

In the case of `CS(=O)(=O)c1ccc(Nc2ccc3c(c2)OCO3)c([N+](=O)[O-])c1` [MSNBA, N-(4-methanesulfonyl-2-nitrophenyl)-2H-1,3-benzodioxol-5-amine], the IC50 (GLUT5 [5]) is listed as 5.8 mM and the IC50 (GLUT5 [6]) is listed as 0.1 mM.

In the case of `O=C(N[C@H]1[C@H](O)[C@@H](CO)O[C@@H]1CO)c1ccc(F)cc1` [Compound 9, 3-deoxy-3-[N-(4-fluorobenzamide)amino]-2,5-anhydro-D-mannitol], the “Inhibition … (in words)” value (GLUT5 [1]) is reported as “no inhibitory activity in the selected concentration range”.

With `O=C(N[C@H]1[C@H](O)[C@@H](CO)O[C@@H]1CO)c1cc2ccc(OCCF)cc2oc1=O` [Compound 11, 3-deoxy-3-[N-(7-(2-fluoroethoxy)-2-oxo-2H-chromene-3-carboxamide)amino]-2,5-anhydro-D-mannitol] the IC50 (GLUT5 [1]) was 1.71 ± 0.08 mM and the “Fold better inhibition of 6-[18F]FDF uptake relative to 6-FDF” value (GLUT5 [1]) was ~ 10 fold.

For `O=C(CO)[C@@H](O)[C@H](O)[C@H](O)CO` [Fructose, D-fructose], the Solubility [7] is given as “freely soluble”, the IC50 (GLUT2) is given as 80 mM and the Km (GLUT5 [8]) is given as 11 to 15 mM.

In the case of `OC[C@H]1O[C@H](CO)[C@@H](NC(=S)Nc2ccc(F)cc2)[C@@H]1O` [Compound 7, 3-deoxy-3-[N-(1-(4-fluorophenyl)thiourea)amino]-2,5-anhydro-D-mannitol], the “Inhibition … (in words)” value (GLUT5 [1]) is reported as “no effect on 6-[^18F]FDF uptake”.

With `CN(C)c1cccc2c(S(=O)(=O)N[C@H]3[C@H](O)[C@@H](CO)O[C@@H]3CO)cccc12` [Compound 6, 3-deoxy-3-[N-(5-(dimethylamino)naphthalene-1-sulfonamide)amino]-2,5-anhydro-D-mannitol] the IC50 (GLUT5 [1]) was 2.29 ± 0.18 mM and the “Fold better inhibition of 6-[18F]FDF uptake relative to 6-FDF” value (GLUT5 [1]) was “fivefold stronger inhibitory effect”.

In the case of `OC[C@H]1O[C@H](CF)[C@@H](O)[C@@H]1O` [1-FDAM, 1-deoxy-1-fluoro-2,5-anhydro-mannitol], the IC50 (GLUT5 [3]; estimated earlier by the authors, read-out: IC50 against the uptake of the probe 6-[18F]FDF) is listed as ~20 mM.

In the case of `OC[C@H]1OC(O)[C@H](O)[C@@H](O)[C@@H]1O` (stereo partly shown) [glucose], the “Affinity of glucose transport through GLUT1 (K4)” value (GLUT1) is given as 1 to 2 mM.
